Reference: patent US20240196889A1, “USE OF DI- AND TRI[…] ACIDS IN THE PREVENTION OF BIOFILM FORMATION” (priority 2020, published 2024)
In brackets after ≈: the same amount, converted by molar mass.

How the values were obtained:
Salmonella = assay: Minimal inhibitory concentration (MIC) assay; assay type: cell-based, Salmonella enterica serovar Typhimurium; conditions: TSB 1/20, 24 h, 25° C., same conditions as the biofilm assay
Experimental: MIC values were determined in a 96-well plate. Two-fold serial dilutions of agaric acid or DMSO were prepared in 100 μl of TSB 1/20 and 100 μL of the inoculum diluted 1/100 in TSB 1/20 was added. The plate was covered with a Breathable Sealing Membrane and a lid and incubated for 24 h at 25° C., shaking at 200 rpm.

Salmonella biofilms = assay: Tolerance assay of mature biofilms (H2O2 or ciprofloxacin, CFU); assay type: cell-based; conditions: grown 48 h with 100 μM
Experimental: It is well established that biofilms can be extremely tolerant to treatment with antimicrobials. To test whether the preventive addition of agaric acid renders Salmonella biofilms more susceptible to treatment with common disinfectants or antibiotics, biofilms grown in the presence and absence of agaric acid for 48 hour were treated for 1 h with 0.25% H2O2 or 1 μM ciprofloxacin. Hydrogen peroxide is a commonly used disinfectant in food industry [Meireles et al. (2016) Food Research International 82, 71-85; Meireles et al. (2016) Food Research International 82, 71-85], whereas ciprofloxacin is a fluoroquinolone antibiotic frequently used to treat Salmonella infections [Tabak et al. (2009) FEMS microbiology letters 301, 69-76].
To determine the tolerance of mature biofilms, biofilms were grown on microscopy glasses (75 mm×25 mm) placed vertical in a 50 ml falcon filled with 30 ml TSB 1/20. This set-up allows for easy transfer of mature biofilms as the top of vertical slide sticks out of the medium which allows to grab the slide with a pincer without damaging the biofilm. ONC of Salmonella were normalized to an OD600 of 3.2 and diluted 1/100 into the broth containing either a final concentration of 100 μM agaric or the corresponding amount of DMSO. […] The number of colony forming units (CFU) of biofilms was determined by plating.

CCCCCCCCCCCCCCCCC(C(=O)O)C(O)(CC(=O)O)C(=O)O (stereo not drawn) [Agaric acid, 2-hydroxynonadecane-1,2,3-tricarboxylic acid]
MIC (Salmonella): 8 mM (≈ 3330 µg/mL) | susceptibility of biofilms to ciprofloxacin (Salmonella biofilms; then 1 μM ciprofloxacin for 1 h): further increased the effect of a ciprofloxacin treatment, albeit not significantly | susceptibility of biofilms to H2O2 (Salmonella biofilms; then 0.25% H2O2 for 1 h): significantly more susceptible to hydrogen peroxide
